In ChEMBL document CHEMBL1152367, “Discovery and functional evaluation of diverse novel human CB(1) receptor ligands” (Bioorg Med Chem Lett, 2009):

Columns and labels:
Cannabinoid receptor 1 [1] = molecular target: T1, Cannabinoid receptor 1 (Homo sapiens, UniProt P21554); assay: biochemical; type: cell-based, HEK293
Cannabinoid receptor 1 [2] = molecular target: T1, Cannabinoid receptor 1; assay: Displacement of [3H]rimonabant from human CB1 receptor expressed in HEK293 cells assessed as signal point inhibition at 10 uM by liquid scintillation counting; type: cell-based
Cannabinoid receptor 1 [3] = molecular target: T1, Cannabinoid receptor 1; assay: Inverse agonist activity at human CB1 receptor by [35S]GTPgammaS incorporation assay relative to rimonabant; type: functional; parameters: concentration or dose not given beside the values
Cannabinoid receptor 1 [4] = molecular target: T1, Cannabinoid receptor 1; assay: Inverse agonist activity at human CB1 receptor by [35S]GTPgammaS incorporation assay; type: functional
Homo sapiens = species on record: Homo sapiens; assay: Selectivity ratio of Ki for human CB2 receptor to Ki for human CB1 receptor
Cannabinoid receptor 2 = Cannabinoid receptor 2 (Homo sapiens, UniProt P34972); assay: Displacement of [3H]rimonabant from human CB2 receptor expressed in HEK293 cells by liquid scintillation counting; type: cell-based
Chain of Cannabinoid receptor 2 (P34972 whole entry): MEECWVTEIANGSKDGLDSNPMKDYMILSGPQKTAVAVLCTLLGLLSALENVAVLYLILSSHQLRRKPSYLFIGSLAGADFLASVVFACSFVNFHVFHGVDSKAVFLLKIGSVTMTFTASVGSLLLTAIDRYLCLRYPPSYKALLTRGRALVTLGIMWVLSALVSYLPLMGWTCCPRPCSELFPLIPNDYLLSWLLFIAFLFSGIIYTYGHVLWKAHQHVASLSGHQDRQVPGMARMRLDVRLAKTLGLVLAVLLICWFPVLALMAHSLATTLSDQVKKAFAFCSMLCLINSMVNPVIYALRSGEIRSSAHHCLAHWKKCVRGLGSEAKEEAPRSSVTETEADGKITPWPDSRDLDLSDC

T1 sequence (P21554 whole entry): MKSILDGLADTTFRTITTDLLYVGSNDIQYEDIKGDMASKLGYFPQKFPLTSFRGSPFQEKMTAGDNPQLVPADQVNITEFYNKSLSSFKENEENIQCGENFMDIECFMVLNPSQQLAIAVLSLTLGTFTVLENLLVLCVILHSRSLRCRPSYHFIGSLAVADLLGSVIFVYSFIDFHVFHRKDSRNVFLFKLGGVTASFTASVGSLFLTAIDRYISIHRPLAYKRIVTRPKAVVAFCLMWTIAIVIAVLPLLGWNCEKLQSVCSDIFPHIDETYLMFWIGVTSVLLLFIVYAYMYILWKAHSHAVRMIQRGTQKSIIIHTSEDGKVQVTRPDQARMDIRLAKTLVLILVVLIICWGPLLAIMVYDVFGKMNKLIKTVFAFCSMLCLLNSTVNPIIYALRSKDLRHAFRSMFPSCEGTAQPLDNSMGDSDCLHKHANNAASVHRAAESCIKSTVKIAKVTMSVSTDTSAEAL

| Ki (Cannabinoid receptor 1 [1]) [nM] | inhibition (Cannabinoid receptor 1 [2]) [%] | Activity (Cannabinoid receptor 1 [3]) [%] | EC50 (Cannabinoid receptor 1 [4]) [nM] | Ratio Ki (Homo sapiens) | Ki (Cannabinoid receptor 2) [nM] | SMILES |
| --- | --- | --- | --- | --- | --- | --- |
| 1000 | 63 |  |  |  |  | CS/C(=N\S(=O)(=O)c1ccc(-n2nc(C(F)(F)F)cc2-c2cccs2)cc1)N1CCCC1 |
| 2270 | 86 |  |  |  |  | CC(C)NC(=O)C(C)Sc1nnc2c3ccccc3n(Cc3ccccc3)c2n1 (configuration not stated) |
| 7490 | 62 |  |  |  |  | CC(C)(C)c1ccc(C(=O)N2C(C(=O)NCc3ccccn3)CSC2c2cccc(F)c2)cc1 (configuration not stated) |
| 273 | 77 |  |  |  |  | CCOC(=O)CN1C(c2ccc(F)cc2)Nc2ccc(Br)cc2C1c1ccccc1 (configuration not stated) |
| 1940 | 77 |  |  |  |  | COc1ccc(-c2cc(C(=O)N3CCN(C(C)=O)CC3)n(-c3cccc(C)c3)n2)c(OC)c1 |
| 611 | 77 | 50 | 500 | > 16.4 | 10000 | CC1CC(C)CN(S(=O)(=O)c2ccc(F)c(C(=O)NC(c3ccccc3)c3ccccc3)c2)C1 (configuration not stated) |
|  |  | 95 | 300 | 33.7 |  | CCN(Cc1ccccc1)C(=O)c1oc2ccc(S(=O)(=O)N3CC(C)CC(C)C3)cc2c1C (configuration not stated) |
| 3950 | 81 |  |  |  |  | CCCNC(=O)N1CCN(c2nc(Cc3ccccc3)c3c(c2C#N)CC(C)(C)OC3)CC1 |
| 1090 | 82 |  |  |  |  | CCOC(=O)N1CC=C2C(C1)C1(C(=O)N(Cc3ccccc3)c3ccccc31)C(C#N)=C(N)C2(C#N)C#N (configuration not stated) |
| 520 | 78 | 91 | 1100 | > 19.2 | 10000 | Cc1ccc(C2c3cccn3-c3ccccc3N2C(=O)CN(C(=O)C2CCCC2)C2CC2)cc1 (configuration not stated) |
| 1030 | 64 | 77 | 1100 |  |  | CC(C)N(CC(=O)N1c2ccccc2-n2cccc2C1c1ccc(F)cc1)C(=O)CC(C)(C)C (configuration not stated) |
| 2590 | 82 |  |  |  |  | COc1ccc(C2c3ccsc3CCN2C(=O)CN(C(=O)C2CCCCC2)C(C)C)cc1 (configuration not stated) |
| 520 | 73 |  |  |  |  | CC(C(=O)N1c2ccccc2C(C)(c2ccc(Cl)cc2)CC1(C)C)N1C(=O)C2CCCCC2C1=O (configuration not stated) |
| 256 | 82 | 62 | 200 | > 39 | 10000 | O=C(Nc1ccccc1Oc1ccccc1)c1ccc(S(=O)(=O)N2CCc3ccccc32)cc1 |
| 264 | 85 | 91 | 1200 | > 37.9 | 10000 | COc1ccccc1NC(=O)C(C)Sc1nc(-c2ccc(C)cc2)nc2c1COC(C)(C)C2 (configuration not stated) |
| 2400 | 69 |  |  |  |  | COc1ccc(C2C(C(=O)Nc3cccc(C)n3)c3ccccc3C(=O)N2C2CCCCC2)cc1 (configuration not stated) |
| 875 | 89 | 105 | 4400 |  |  | CC(C)CN(CC(=O)N1CCc2sccc2C1c1ccc(F)cc1)C(=O)c1ccco1 (configuration not stated) |
| 1470 | 71 |  |  |  |  | Cc1ccc(C(C(=O)Nc2ccc3c(c2)OCCO3)N(C)C(=O)/C=C\c2ccc3c(c2)OCO3)cc1 (configuration not stated) |
| 2300 | 85 |  |  |  |  | Cc1ccc(C(=O)n2cc(/C=N/Nc3nc(N4CCOCC4)nc(N4CCOCC4)n3)c3ccccc32)cc1 |
| 2310 | 80 |  |  |  |  | COc1ccccc1N1CCN(C(=O)C(C)Sc2nc(-c3ccccc3)cc(C(F)(F)F)n2)CC1 (configuration not stated) |
| 308 | 95 | 103 | 1500 | 16.1 | 4950 | COc1ccc(C2c3cccn3-c3ccccc3N2C(=O)CN(C(=O)NC(C)(C)C)C(C)C)cc1 (configuration not stated) |
| 227 | 90 | 81 | 600 | 17.3 | 3920 | COc1cccc(N2C(C(C)=O)=NN(c3ccc(Cl)cc3)C2c2ccc(N3CCOCC3)cc2)c1 (configuration not stated) |
| 2720 | 73 |  |  |  |  | Cc1cc(-c2ccccc2)n(Cc2ccccc2)c(=O)c1S(=O)(=O)c1ccccc1 |
| 1760 | 77 |  |  |  |  | Cc1ccc(Cc2nsc(N3CCCN(C(=O)Nc4c(C(C)C)cccc4C(C)C)CC3)n2)cc1 |
| 325 | 94 | 60 | 400 | 0.2 | 58 | Cc1cc(C)c(OCC(=O)Nc2sc3c(c2C(=O)NC2CCS(=O)(=O)C2)CCCC3)c(C)c1 (configuration not stated) |
| 1610 | 87 |  |  |  |  | COC(=O)c1c(C)oc(C)c1S(=O)(=O)N1CCN(C2c3ccccc3-c3ccccc32)CC1 |
| 1180 | 67 |  |  |  |  | CC1CN(c2ncnc(NC(c3ccccc3)c3ccccc3)c2[N+](=O)[O-])CC(C)O1 (configuration not stated) |
| 2780 | 79 |  |  |  |  | Cc1cccc(C)c1N(C(=O)c1ccccc1Cl)C(=O)C(c1ccc([N+](=O)[O-])cc1)N1CCOCC1 (configuration not stated) |
| 287 | 98 | 44 | 200 | 3.7 | 1070 | CCOC(=O)N1CCN(C(=O)c2cc(-c3ccccc3Cl)nn2-c2ccc(C)cc2C)CC1 |
| 1050 | 71 |  |  |  |  | O=C(c1ccc(-n2cnnn2)cc1)N(c1ccccc1)C1(C(=O)Nc2ccccc2)CCCCC1 |
